Patent US6686343B1, “Triazolopurine derivatives, pharmaceutical compositions containing the derivatives, and adenosine A3 receptor affinitive agents” (Otsuka Pharmaceutical Factory, Inc., priority 1999, dated 2004)

| Structure (SMILES) | melting point |
| --- | --- |
| CCOC(=O)CCCCc1nc2nc[nH]c2c2nc(-c3ccc(-c4ccccc4)cc3)nn12 [Example 22, 8-(4-biphenylyl)-5-(4-ethoxycarbonylbutyl)-1H-1,2,4-triazolo[5,1-i]purine] | 241 to 243 °C |
| CCSCc1nc2nc[nH]c2c2nc(-c3ccc(-c4ccccc4)cc3)nn12 [Example 49, 8-(4-biphenylyl)-5-ethylthiomethyl-1H-1,2,4-triazolo[5,1-i]purine] | 264 to 266 °C |
| CS(=O)(=O)CCc1nc2nc[nH]c2c2nc(-c3ccc(C(F)(F)F)cc3)nn12 [Example 44, 5-(2-methylsulfonylethyl)-8-(4-trifluoromethylphenyl)-1H-1,2,4-triazolo[5,1-i]purine] | ≥ 261 °C (dec.) |
| COCc1nc2nc[nH]c2c2nc(-c3ccccc3)nn12 [Example 12, 5-methoxymethyl-8-phenyl-1H-1,2,4-triazolo[5,1-i]purine] | ≥ 280 °C |
| CS(=O)(=O)CCc1nc2nc[nH]c2c2nc(-c3ccc(Cl)cc3)nn12 [Example 42, 8-(4-chlorophenyl)-5-(2-methylsulfonylethyl)-1H-1,2,4-triazolo[5,1-i]purine] | ≥ 244 °C (dec.) |
| CCOP(=O)(O)Cc1nc2nc[nH]c2c2nc(-c3ccc(C(F)(F)F)cc3)nn12 | 268 to 270 °C |
| CSCCc1nc2nc[nH]c2c2nc(-c3ccc(-c4ccccc4)cc3)nn12 [Example 4, 8-(4-biphenylyl)-5-(2-methylthioethyl)-1H-1,2,4-triazolo[5,1-i]purine] | 249 to 251 °C |
| CSCc1nc2nc[nH]c2c2nc(-c3ccc(-c4ccccc4)cc3)nn12 [Example 48, 8-(4-biphenylyl)-5-methylthiomethyl-1H-1,2,4-triazolo[5,1-i]purine] | 284 to 286 °C |
| c1ccc(-c2ccc(-c3nc4c5[nH]cnc5nc(C5CCCCC5)n4n3)cc2)cc1 [Example 45, 8-(4-biphenylyl)-5-cyclohexyl-1H-1,2,4-triazolo[5,1-i]purine] | ≥ 280 °C |
| COCc1nc2nc[nH]c2c2nc(-c3ccc(C(C)(C)C)cc3)nn12 [Example 15, 8-(4-t-butylphenyl)-5-methoxymethyl-1H-1,2,4-triazolo[5,1-i]purine] | ≥ 280 °C |
| CSCCc1nc2nc[nH]c2c2nc(-c3ccc(Cl)cc3)nn12 [Example 29, 8-(4-chlorophenyl)-5-(2-methylthioethyl)-1H-1,2,4-triazolo[5,1-i]purine] | ≥ 257 °C (dec.) |
| CCOCc1nc2nc[nH]c2c2nc(-c3cc(OC)c(OC)c(OC)c3)nn12 [Example 5, 5-ethoxymethyl-8-(3,4,5-trimethoxyphenyl)-1H-1,2,4-triazolo[5,1-i]purine] | 254 to 255.5 °C |
| CCCOc1ccc(-c2nc3c4[nH]cnc4nc(CCOC)n3n2)cc1 [Example 10, 5-(2-methoxyethyl)-8-(4-n-propoxyphenyl)-1H-1,2,4-triazolo[5,1-i]purine] | 231.5 to 232.5 °C |
| CCCOc1ccc(-c2nc3c4[nH]cnc4nc(COC)n3n2)cc1 [Example 9, 5-methoxymethyl-8-(4-n-propoxyphenyl)-1H-1,2,4-triazolo[5,1-i]purine] | ≥ 280 °C |
| CCOP(=O)(Cc1nc2nc[nH]c2c2nc(-c3ccc(C(C)(C)C)cc3)nn12)OCC | 162 to 166 °C |
| COC(=O)CCCc1nc2nc[nH]c2c2nc(-c3ccc(Cl)cc3)nn12 [Example 30, 8-(4-chlorophenyl)-5-(3-methoxycarbonylpropyl)-1H-1,2,4-triazolo[5,1-i]purine] | 261 to 262.5 °C |
| CCOP(=O)(Cc1nc2nc[nH]c2c2nc(-c3ccc(C(F)(F)F)cc3)nn12)OCC | 196 to 198 °C |
| CCOCc1nc2nc[nH]c2c2nc(-c3ccccc3)nn12 [Example 11, 5-ethoxymethyl-8-phenyl-1H-1,2,4-triazolo[5,1-i]purine] | 247 to 249 °C |
| COCc1nc2nc[nH]c2c2nc(-c3ccc(C(F)(F)F)cc3)nn12 [Example 24, 5-methoxymethyl-8-(4-trifluoromethylphenyl)-1H-1,2,4-triazolo[5,1-i]purine] | ≥ 280 °C |
